Results published in PubChem BioAssay AID1259408 (Genetic Toxicology Data Bank (GENE-TOX), 2018).
Calls of active or inactive are those of the source. The rule behind the calls is not given here.

System: GENE-TOX genotoxicity assays, various organisms and cells
Test: GENE-TOX mutagenicity studies
Conditions: for call: Assay Type: In vivo carcinogenicity studies
[1] = Species/Cell Type: Escherichia coli polA (W3110 vs P3478), Assay Type: Rec-assay, DNA effects (bacterial DNA repair), Assay Code: RE2+, Evaluation Type: Evaluation A (Pre-1980)
[2] = Species/Cell Type: Nonhuman, Assay Code: CCGT, Evaluation Type: Evaluation A (Pre-1980)
[3] = Species/Cell Type: Bacillus subtilis (H17 vs M45), Assay Type: Rec-assay, spot test, DNA effects (bacterial DNA repair), Assay Code: REW-, Evaluation Type: Evaluation A (Pre-1980)
[4] = Species/Cell Type: Syrian hamster embryo (SA7/SHE) cells, Assay Type: Cell transformation, viral enhanced, Assay Code: CT7-, Evaluation Type: Evaluation A (Pre-1980)
[5] = Species/Cell Type: Salmonella typhimurium (one or more of the five standard strains: TA98, TA100, TA1535, TA1537, and TA1538), Assay Type: Histidine reverse gene mutation, Ames assay, Assay Code: SALT, Evaluation Type: Evaluation A (Pre-1980)
[6] = Species/Cell Type: Drosophila melanogaster, Assay Type: Sex-linked recessive lethal gene mutation, Assay Code: SRL+, Evaluation Type: Evaluation A (Pre-1980)
[7] = Species/Cell Type: Mammalian polychromatic erythrocytes, Assay Type: Micronucleus test, chromosome aberrations, Assay Code: MNT+, Evaluation Type: Evaluation A (Pre-1980)
[8] = Species/Cell Type: Nonhuman, Assay Code: CCG+, Evaluation Type: Evaluation A (Pre-1980)
[9] = Species/Cell Type: Bacillus subtilis (H17 vs M45T), Assay Type: Rec-assay, spot test, DNA effects (bacterial DNA repair), Assay Code: REXT, Evaluation Type: Evaluation A (Pre-1980)
[10] = Species/Cell Type: Salmonella typhimurium (one or more of the five standard strains: TA98, TA100, TA1535, TA1537, and TA1538), Assay Type: Histidine reverse gene mutation, Ames assay, Assay Code: SAL-, Evaluation Type: Evaluation A (Pre-1980)
[11] = Species/Cell Type: Nonhuman, Assay Code: CCG+L, Evaluation Type: Evaluation A (Pre-1980)
[12] = Species/Cell Type: Saccharomyces cerevisiae, Assay Type: Reverse gene mutation, Assay Code: YERT, Evaluation Type: Evaluation A (Pre-1980)

C[C@@H]1C[C@@H]([C@H](O)CC2CC(=O)NC(=O)C2)C(=O)[C@@H](C)C1
mutagenic call (Species/Cell Type: Drosophila melanogaster, Assay Type: Aneuploidy, whole sex chromosome loss, chromosome aberrations, Assay Code: DACT, Evaluation Type: Evaluation A (Pre-1980)): no conclusion
mutagenic call [1]: active; positive
mutagenic call (Species/Cell Type: Escherichia coli polA (W3119 vs P3478), Assay Type: Rec-assay, DNA effects (bacterial DNA repair), Assay Code: RE1T, Evaluation Type: Evaluation A (Pre-1980)): no conclusion
mutagenic call (Species/Cell Type: Mammalian polychromatic erythrocytes, Assay Type: Micronucleus test, chromosome aberrations, Assay Code: MNTT, Evaluation Type: Evaluation A (Pre-1980)): no conclusion
mutagenic call (Species/Cell Type: Mouse, Sex: Male, Assay Type: Sperm morphology, Assay Code: SPI+, Evaluation Type: Evaluation A (Pre-1980)): active; positive
mutagenic call (Species/Cell Type: Neurospora crassa, Assay Type: Aneuploidy, chromosome aberrations, Assay Code: NEN-, Evaluation Type: Evaluation A (Pre-1980)): inactive; negative
call [2]: no conclusion
mutagenic call (Species/Cell Type: Nonhuman, Assay Type: Sister-chromatid exchange (SCE) in vitro, Assay Code: SC2T, Evaluation Type: Evaluation B (Post-1980)): no conclusion
mutagenic call (Species/Cell Type: Vicia faba, Assay Type: Chromosome aberrations, Assay Code: VIC+, Evaluation Type: Evaluation A (Pre-1980)): active; positive

[Li+]
mutagenic call [3]: inactive; negative
mutagenic call [4]: inactive; negative

NS(=O)(=O)c1cc2c(cc1Cl)NC=NS2(=O)=O
mutagenic call [5]: no conclusion

CN(C)N=Nc1ccccc1
mutagenic call (Species/Cell Type: Drosophila melanogaster, Assay Type: Aneuploidy, partial sex chromosome loss, chromosome aberrations, Assay Code: DAP+M, Evaluation Type: Evaluation A (Pre-1980)): active; positive
mutagenic call [6]: active; positive
mutagenic call (Species/Cell Type: Drosophila melanogaster, Sex: Male, Assay Type: Heritable translocation test, chromosome aberrations, Assay Code: DHT+, Evaluation Type: Evaluation A (Pre-1980)): active; positive
mutagenic call [1]: active; positive
mutagenic call (Species/Cell Type: Escherichia coli polA (W3119 vs P3478), Assay Type: Rec-assay, DNA effects (bacterial DNA repair), Assay Code: RE1+, Evaluation Type: Evaluation A (Pre-1980)): active; positive
mutagenic call [7]: active; positive
mutagenic call (Species/Cell Type: Neurospora crassa, Assay Type: Forward gene mutation, Assay Code: NEF+, Evaluation Type: Evaluation A (Pre-1980)): active; positive
mutagenic call (Species/Cell Type: Nonhuman lymphocytes or leukocytes, Assay Type: Chromosome aberrations in vivo, Assay Code: CY%-, Evaluation Type: Evaluation A (Pre-1980)): inactive; negative
call [8]: active; positive
mutagenic call (Species/Cell Type: Nonhuman, Assay Type: Sister-chromatid exchange (SCE) in vivo, Assay Code: SC3+D, Dose Response: With dose response, Evaluation Type: Evaluation A (Pre-1980)): active; positive
mutagenic call (Species/Cell Type: Saccharomyces cerevisiae, Assay Type: Forward and reverse gene mutation, mitotic recombination and gene conversion, host-mediated assay, Assay Code: HME+, Evaluation Type: Evaluation A (Pre-1980)): active; positive
mutagenic call (Species/Cell Type: Saccharomyces cerevisiae, Assay Type: Mitotic recombination or gene conversion, Assay Code: YEC+, Evaluation Type: Evaluation A (Pre-1980)): active; positive
mutagenic call (Species/Cell Type: Saccharomyces cerevisiae, Assay Type: Mitotic recombination or gene conversion, Assay Code: YEH+, Evaluation Type: Evaluation A (Pre-1980)): active; positive

O=S(=O)(O)c1ccc2c(N=Nc3ccc(S(=O)(=O)O)c4ccccc34)c(O)c(S(=O)(=O)O)cc2c1
mutagenic call (Species/Cell Type: Bacillus subtilis (H17 vs M45), Assay Type: Rec-assay, spot test, DNA effects (bacterial DNA repair), Assay Code: REWT, Evaluation Type: Evaluation A (Pre-1980)): no conclusion
mutagenic call [9]: no conclusion
mutagenic call (Species/Cell Type: Rodents, Sex: Male, Assay Type: Dominant lethal test, Assay Code: DLT-, Evaluation Type: Evaluation A (Pre-1980)): inactive; negative
mutagenic call (Species/Cell Type: Saccharomyces cerevisiae, Assay Type: Mitotic recombination or gene conversion, Assay Code: YEC-, Evaluation Type: Evaluation A (Pre-1980)): inactive; negative
mutagenic call [10]: inactive; negative
mutagenic call [4]: inactive; negative

O=C(O)CC[N+](=O)[O-]
mutagenic call (Species/Cell Type: Fischer rat embryo (RLV/1706) cells, Assay Type: Cell transformation, viral enhanced, Assay Code: CTR+, Evaluation Type: Evaluation A (Pre-1980)): active; positive
call (Species/Cell Type: Nonhuman, Assay Code: CCG-L, Evaluation Type: Evaluation A (Pre-1980)): inactive; negative

NS(=O)(=O)c1ccccc1C(=O)O
mutagenic call (Species/Cell Type: Mammalian polychromatic erythrocytes, Assay Type: Micronucleus test, chromosome aberrations, Assay Code: MNTT, Evaluation Type: Evaluation B (Post-1980)): no conclusion

CCN(CC)N=Nc1ccccc1
mutagenic call [7]: active; positive
call [11]: active; positive

[CH3][Hg][CH3]
mutagenic call (Species/Cell Type: Mammalian oocytes or early embryo, Assay Type: Chromosome aberrations in vivo, Assay Code: CYO-, Evaluation Type: Evaluation A (Pre-1980)): inactive; negative
mutagenic call (Species/Cell Type: Rodents, Sex: Male, Assay Type: Dominant lethal test, Assay Code: DLTT, Evaluation Type: Evaluation A (Pre-1980)): no conclusion

Cc1c(C2(c3cc(Br)c(O)c(Br)c3C)OS(=O)(=O)c3ccccc32)cc(Br)c(O)c1Br
mutagenic call [9]: no conclusion
mutagenic call [5]: no conclusion

CC(=O)[O-].CC(=O)[O-].CC(=O)[O-].CC(=O)[O-].[Pb+2]
call [8]: active; positive

[Cl-].[Cl-].[NH2-].[NH2-].[NH2-].[NH2-].[Pt+2]
mutagenic call (Species/Cell Type: Chinese hamster ovary (CHO) cells, Assay Type: Forward gene mutation at the HPRT locus, Assay Code: CHOT, Evaluation Type: Evaluation B (Post-1980)): no conclusion

OCCCCO
mutagenic call (Species/Cell Type: Drosophila melanogaster, Assay Type: Sex-linked recessive lethal gene mutation, Assay Code: SRLT, Evaluation Type: Evaluation A (Pre-1980)): no conclusion

Nc1nc(-c2ccccc2)cs1
mutagenic call [3]: inactive; negative

Oc1cc(O)c2ccccc2c1
mutagenic call (Species/Cell Type: Allium cepa, Assay Type: Chromosome aberrations, Assay Code: ALCT, Evaluation Type: Evaluation A (Pre-1980)): no conclusion

O=C(O)CN(CC(=O)O)C1C[C@H]1N(CC(=O)O)CC(=O)O (some centres undefined)
mutagenic call (Species/Cell Type: Chinese hamster lung (V79) cells, Assay Type: Forward gene mutation at the HPRT or ouabain locus, Assay Code: V79+, Evaluation Type: Evaluation A (Pre-1980)): active; positive

CC(C)(C)N(CCCC(=O)O)N=O
mutagenic call [5]: no conclusion

NNC(=O)COc1ccc(Br)cc1CN1CCOCC1
mutagenic call [12]: no conclusion

Cc1c2c(c(CO)c3ccc4ccccc4c13)C=C[C@H](O)[C@H]2O
call [2]: no conclusion

O=c1[nH]c(=O)[nH]c(=O)[nH]1
mutagenic call (Species/Cell Type: Nonhuman, Assay Type: Sister-chromatid exchange (SCE) in vitro, Assay Code: SC2-, Evaluation Type: Evaluation B (Post-1980)): inactive; negative

C=C/C=C/Cl
mutagenic call [6]: active; positive

O=C1CCC(=O)O1
mutagenic call (Species/Cell Type: Escherichia coli polA (W3110 vs P3478), Assay Type: Rec-assay, DNA effects (bacterial DNA repair), Assay Code: RE2-, Evaluation Type: Evaluation A (Pre-1980)): inactive; negative
mutagenic call (Species/Cell Type: Escherichia coli polA (W3119 vs P3478), Assay Type: Rec-assay, DNA effects (bacterial DNA repair), Assay Code: RE1-, Evaluation Type: Evaluation A (Pre-1980)): inactive; negative
mutagenic call (Species/Cell Type: Mouse lymphoma (L5178Y) cells, Assay Type: Forward gene mutation at the thymidine kinase (TK) locus, chromosome aberrations, Assay Code: L51-, Evaluation Type: Evaluation A (Pre-1980)): inactive; negative
call [11]: active; positive
mutagenic call (Species/Cell Type: Saccharomyces cerevisiae, Assay Type: Mitotic recombination or gene conversion, Assay Code: YEH-, Evaluation Type: Evaluation A (Pre-1980)): inactive; negative
mutagenic call [10]: inactive; negative
mutagenic call (Species/Cell Type: Salmonella typhimurium, Assay Type: Forward and reverse gene mutation, host-mediated assay, Assay Code: HMA-, Evaluation Type: Evaluation A (Pre-1980)): inactive; negative
mutagenic call (Species/Cell Type: Syrian hamster embryo (SHE) cells, Assay Type: Cell transformation, clonal assay, Assay Code: CTC+, Evaluation Type: Evaluation A (Pre-1980)): active; positive

CCN(CC)Cc1cc(Br)ccc1OCC(=O)N/N=C/c1ccccc1O
mutagenic call [12]: no conclusion

CC(=O)O[C@]1(C(C)=O)CC[C@H]2[C@@H]3C=C(Cl)C4=CC(=O)[C@@H]5C[C@@H]5[C@]4(C)[C@H]3CC[C@@]21C
mutagenic call (Species/Cell Type: Human, Sex: Male, Assay Type: Sperm morphology, Assay Code: SPH+, Evaluation Type: Evaluation A (Pre-1980)): active; positive

CN(C)C(=S)SSC(=S)N(C)C
mutagenic call (Species/Cell Type: Bacillus subtilis (H17 vs M45), Assay Type: Rec-assay, spot test, DNA effects (bacterial DNA repair), Assay Code: REW+, Evaluation Type: Evaluation A (Pre-1980)): active; positive
mutagenic call [7]: active; positive

Nc1ccc(-c2nc(N3CCOCC3)c3ccccc3n2)s1
mutagenic call [5]: no conclusion
